Reference: patent publication US9125913B2, “Bcl-2-selective apoptosis-inducing agents for the treatment of cancer and immune diseases” (AbbVie Inc., priority 2008, dated 2015)

tested on: GST-Bcl-2; experiment: TR-FRET binding assay, Bcl-2; conditions: TR-FRET Ki values
Procedure, shortened: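 Ki values come from Wang's competitive-binding equation applied to TR-FRET signal (excitation 340/35 nm; emission 520/525 nm F-Bak peptide, 495/510 nm Tb antibody). Protein, probe and antibody incubated with compound 3 h at room temperature; dilution series began at 50 μM as 2× stock in 10% DMSO.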

Compound | Binding selectivity ratio (Bcl-XL Ki/Bcl-2 Ki)
CC1(C)CCC(CN2CCN(c3ccc(C(=O)NS(=O)(=O)c4ccc(C(=O)NCC5CCOCC5)cc4)c(Oc4ccc5[nH]ccc5c4)c3)CC2)=C(c2ccc(Cl)cc2)C1 [EXAMPLE 308, 4-(4-{[2-(4-chlorophenyl)-4,4-dimethylcyclohex-1-en-1-yl]methyl}piperazin-1-yl)-2-(1H-indol-5-yloxy)-N-[(4-{[(tetrahydro-2H-pyran-4-ylmethyl)amino]carbonyl}phenyl)sulfonyl]benzamide] | >11.5
COCCNc1ccc(S(=O)(=O)NC(=O)c2ccc(N3CCN(CC4=C(c5ccc(Cl)cc5)CC(C)(C)CC4)CC3)cc2Oc2cccc3[nH]ccc23)cc1S(=O)(=O)C(F)(F)F [EXAMPLE 309, 4-(4-{[2-(4-chlorophenyl)-4,4-dimethylcyclohex-1-en-1-yl]methyl}piperazin-1-yl)-2-(1H-indol-4-yloxy)-N-({4-[(2-methoxyethyl)amino]-3-[(trifluoromethyl)sulfonyl]phenyl}sulfonyl)benzamide] | >149.4
CC1(C)CCC(CN2CCN(c3ccc(C(=O)NS(=O)(=O)c4ccc(NC[C@H]5CC[C@H](O)CC5)c([N+](=O)[O-])c4)c(Oc4ccc5[nH]ccc5c4)c3)CC2)=C(c2ccc(Cl)cc2)C1 [EXAMPLE 310, Trans-4-(4-{[2-(4-chlorophenyl)-4,4-dimethylcyclohex-1-en-1-yl]methyl}piperazin-1-yl)-N-[(4-{[(4-hydroxycyclohexyl)methyl]amino}-3-nitrophenyl)sulfonyl]-2-(1H-indol-5-yloxy)benzamide] | >13469.4
CO[C@H]1CC[C@H](CNc2ccc(S(=O)(=O)NC(=O)c3ccc(N4CCN(CC5=C(c6ccc(Cl)cc6)CC(C)(C)CC5)CC4)cc3Oc3ccc4[nH]ccc4c3)cc2[N+](=O)[O-])CC1 [EXAMPLE 311, Trans-4-(4-{[2-(4-chlorophenyl)-4,4-dimethylcyclohex-1-en-1-yl]methyl}piperazin-1-yl)-2-(1H-indol-5-yloxy)-N-[(4-{[(4-methoxycyclohexyl)methyl]amino}-3-nitrophenyl)sulfonyl]benzamide] | >2538.5
CC1(C)CCC(CN2CCN(c3ccc(C(=O)NS(=O)(=O)c4ccc(NC[C@H]5CC[C@@H](O)CC5)c([N+](=O)[O-])c4)c(Oc4ccc5[nH]ccc5c4)c3)CC2)=C(c2ccc(Cl)cc2)C1 [EXAMPLE 312, Cis-4-(4-{[2-(4-chlorophenyl)-4,4-dimethylcyclohex-1-en-1-yl]methyl}piperazin-1-yl)-N-[(4-{[(4-hydroxycyclohexyl)methyl]amino}-3-nitrophenyl)sulfonyl]-2-(1H-indol-5-yloxy)benzamide] | >1941.2
CO[C@H]1CC[C@@H](CNc2ccc(S(=O)(=O)NC(=O)c3ccc(N4CCN(CC5=C(c6ccc(Cl)cc6)CC(C)(C)CC5)CC4)cc3Oc3ccc4[nH]ccc4c3)cc2[N+](=O)[O-])CC1 [EXAMPLE 313, Cis-4-(4-{[2-(4-chlorophenyl)-4,4-dimethylcyclohex-1-en-1-yl]methyl}piperazin-1-yl)-2-(1H-indol-5-yloxy)-N-[(4-{[(4-methoxycyclohexyl)methyl]amino}-3-nitrophenyl)sulfonyl]benzamide] | 1500
CC1(C)CCC(CN2CCN(c3ccc(C(=O)NS(=O)(=O)c4ccc(OCCC5CCOCC5)c([N+](=O)[O-])c4)c(Oc4cccc5[nH]ccc45)c3)CC2)=C(c2ccc(Cl)cc2)C1 [EXAMPLE 314, 4-(4-{[2-(4-chlorophenyl)-4,4-dimethylcyclohex-1-en-1-yl]methyl}piperazin-1-yl)-2-(1H-indol-4-yloxy)-N-{[3-nitro-4-(2-tetrahydro-2H-pyran-4-ylethoxy)phenyl]sulfonyl}benzamide] | >215.3
COCCNc1ccc(S(=O)(=O)NC(=O)c2ccc(N3CCN(CC4=C(c5ccc(Cl)cc5)CC(C)(C)CC4)CC3)cc2Oc2ccc3[nH]ccc3c2)cc1S(=O)(=O)C(F)(F)F [EXAMPLE 315, 4-(4-{[2-(4-chlorophenyl)-4,4-dimethylcyclohex-1-en-1-yl]methyl}piperazin-1-yl)-2-(1H-indol-5-yloxy)-N-({4-[(2-methoxyethyl)amino]-3-[(trifluoromethyl)sulfonyl]phenyl}sulfonyl)benzamide] | >190.7
CC1(C)CCC(CN2CCN(c3ccc(C(=O)NS(=O)(=O)c4ccc(OCCCS(C)(=O)=O)c([N+](=O)[O-])c4)c(Oc4cccc5[nH]ccc45)c3)CC2)=C(c2ccc(Cl)cc2)C1 [EXAMPLE 316, 4-(4-{[2-(4-chlorophenyl)-4,4-dimethylcyclohex-1-en-1-yl]methyl}piperazin-1-yl)-2-(1H-indol-4-yloxy)-N-({4-[3-(methylsulfonyl)propoxy]-3-nitrophenyl}sulfonyl)benzamide] | 533.7
COCCCNc1ccc(S(=O)(=O)NC(=O)c2ccc(N3CCN(CC4=C(c5ccc(Cl)cc5)CC(C)(C)CC4)CC3)cc2Oc2ccc3[nH]ccc3c2)cc1[N+](=O)[O-] [EXAMPLE 317, 4-(4-{[2-(4-chlorophenyl)-4,4-dimethylcyclohex-1-en-1-yl]methyl}piperazin-1-yl)-2-(1H-indol-5-yloxy)-N-({4-[(3-methoxypropyl)amino]-3-nitrophenyl}sulfonyl)benzamide] | >235.9
COCCCNc1ccc(S(=O)(=O)NC(=O)c2ccc(N3CCN(CC4=C(c5ccc(Cl)cc5)CC(C)(C)CC4)CC3)cc2Oc2cccc3[nH]ccc23)cc1[N+](=O)[O-] [EXAMPLE 318, 4-(4-{[2-(4-chlorophenyl)-4,4-dimethylcyclohex-1-en-1-yl]methyl}piperazin-1-yl)-2-(1H-indol-4-yloxy)-N-({4-[(3-methoxypropyl)amino]-3-nitrophenyl}sulfonyl)benzamide] | 102.6
CC1(C)CCC(CN2CCN(c3ccc(C(=O)NS(=O)(=O)c4ccc(NCCC#N)c([N+](=O)[O-])c4)c(Oc4ccc5[nH]ccc5c4)c3)CC2)=C(c2ccc(Cl)cc2)C1 [EXAMPLE 319, 4-(4-{[2-(4-chlorophenyl)-4,4-dimethylcyclohex-1-en-1-yl]methyl}piperazin-1-yl)-N-({4-[(2-cyanoethyl)amino]-3-nitrophenyl}sulfonyl)-2-(1H-indol-5-yloxy)benzamide] | 503.4
CC1(C)CCC(CN2CCN(c3ccc(C(=O)NS(=O)(=O)c4ccc(NCCC#N)c([N+](=O)[O-])c4)c(Oc4cccc5[nH]ccc45)c3)CC2)=C(c2ccc(Cl)cc2)C1 [EXAMPLE 320, 4-(4-{[2-(4-chlorophenyl)-4,4-dimethylcyclohex-1-en-1-yl]methyl}piperazin-1-yl)-N-({4-[(2-cyanoethyl)amino]-3-nitrophenyl}sulfonyl)-2-(1H-indol-4-yloxy)benzamide] | 103.6
CC1(C)CCC(CN2CCN(c3ccc(C(=O)NS(=O)(=O)c4ccc(NCC56CC7CC(C5)C(O)[C@H](C7)C6)c([N+](=O)[O-])c4)c(Oc4ccc5[nH]ccc5c4)c3)CC2)=C(c2ccc(Cl)cc2)C1 (stereo partly drawn) [EXAMPLE 321, 4-(4-{[2-(4-chlorophenyl)-4,4-dimethylcyclohex-1-en-1-yl]methyl}piperazin-1-yl)-N-{[4-({[(3R)-4-hydroxy-1-adamantyl]methyl}amino)-3-nitrophenyl]sulfonyl}-2-(1H-indol-5-yloxy)benzamide] | >957.9
CC1(C)CCC(CN2CCN(c3ccc(C(=O)NS(=O)(=O)c4ccc(NCCC(F)(F)F)c([N+](=O)[O-])c4)c(Oc4cccc5[nH]ccc45)c3)CC2)=C(c2ccc(Cl)cc2)C1 [EXAMPLE 323, 4-(4-{[2-(4-chlorophenyl)-4,4-dimethylcyclohex-1-en-1-yl]methyl}piperazin-1-yl)-2-(1H-indol-4-yloxy)-N-({3-nitro-4-[(3,3,3-trifluoropropyl)amino]phenyl}sulfonyl)benzamide] | >695.2
CC1(C)CCC(CN2CCN(c3ccc(C(=O)NS(=O)(=O)c4ccc(NCCC(F)(F)F)c([N+](=O)[O-])c4)c(Oc4ccc5[nH]ccc5c4)c3)CC2)=C(c2ccc(Cl)cc2)C1 [EXAMPLE 324, 4-(4-{[2-(4-chlorophenyl)-4,4-dimethylcyclohex-1-en-1-yl]methyl}piperazin-1-yl)-2-(1H-indol-5-yloxy)-N-({3-nitro-4-[(3,3,3-trifluoropropyl)amino]phenyl}sulfonyl)benzamide] | >445.7
CC1(C)CCC(CN2CCN(c3ccc(C(=O)NS(=O)(=O)c4cnc(NCC5CCOCC5)c(Br)c4)c(Oc4cccc5[nH]ccc45)c3)CC2)=C(c2ccc(Cl)cc2)C1 [EXAMPLE 325, N-({5-bromo-6-[(tetrahydro-2H-pyran-4-ylmethyl)amino]pyridin-3-yl}sulfonyl)-4-(4-{[2-(4-chlorophenyl)-4,4-dimethylcyclohex-1-en-1-yl]methyl}piperazin-1-yl)-2-(1H-indol-4-yloxy)benzamide] | >283.1
CC1(C)CCC(CN2CCN(c3ccc(C(=O)NS(=O)(=O)c4ccc(NCC5CCS(=O)(=O)C5)c([N+](=O)[O-])c4)c(Oc4cccc5[nH]ccc45)c3)CC2)=C(c2ccc(Cl)cc2)C1 (stereo not shown) [EXAMPLE 326, 4-(4-{[2-(4-chlorophenyl)-4,4-dimethylcyclohex-1-en-1-yl]methyl}piperazin-1-yl)-N-[(4-{[(1,1-dioxidotetrahydrothien-3-yl)methyl]amino}-3-nitrophenyl)sulfonyl]-2-(1H-indol-4-yloxy)benzamide] | >5708.8
CC1(C)CCC(CN2CCN(c3ccc(C(=O)NS(=O)(=O)c4ccc(OCC5(F)CCOCC5)c([N+](=O)[O-])c4)c(Oc4ccc5[nH]ccc5c4)c3)CC2)=C(c2ccc(Cl)cc2)C1 [EXAMPLE 327, 4-(4-{[2-(4-chlorophenyl)-4,4-dimethylcyclohex-1-en-1-yl]methyl}piperazin-1-yl)-N-({4-[(4-fluorotetrahydro-2H-pyran-4-yl)methoxy]-3-nitrophenyl}sulfonyl)-2-(1H-indol-5-yloxy)benzamide] | 3035.4
